In US20050238655A1, “Antiviral activity from medicinal mushrooms” (priority 2004, published 2005):

What was measured:
Vaccinia = assay type: cell-based
Cowpox = assay type: cell-based

How did the PR CDV EC90 (Vaccinia) turn out when `Nc1ccn(C[C@@H](CO)OCP(=O)(O)O)c(=O)n1` [CDV] was run?
The PR CDV EC90 was 17 µg/mL.

What about the PR CDV EC90 (Cowpox) of the same molecule?
The PR CDV EC90 was 18.1 µg/mL.
